Results published in article PMC8748444, “Hypocrates is a genetically encoded fluorescent biosensor for (pseudo)hypohalous acids and their derivatives” (Nature Communications, 2022).

Columns and labels:
NemR^C106 [1] = biological target: T1, NemR^C106 (Escherichia coli, UniProt P67430, C21S/C98S/C116S/C149S/C153S); assay: intrinsic Trp fluorescence shift; type: binding; conditions: covalent (oxidation); 2 µM protein, 50 µM oxidant; 100 mM sodium phosphate pH 7.4
T1 construct: pET-21b(+) in E. coli BL21 (DE3); Ni-Sepharose purified; DTT-reduced before assay; NemR homo-dimer

[2] = biological target: T2, Hypocrates (NemR-cpYFP biosensor) (Escherichia coli, UniProt P67430, C21S/C98S/C116S/C149S/C153S, form not given); assay: fluorescence titration, Ex500/Ex417 ratio; type: binding; conditions: covalent (oxidation); 100 mM sodium phosphate pH 7.4, 25 °C; 0.5 µM protein
T2 construct: cpYFP (from HyPer-2) inserted with SAG/GT linkers into flexible loop of NemR^C106; pQE30; with Green fluorescent protein (circularly permuted yellow variant, cpYFP)

[3] = biological target: T3, Hypocrates (NemR-cpYFP biosensor) (Escherichia coli, UniProt P67430, C21S/C98S/C106S/C116S/C149S/C153S, form not given); assay: fluorescence excitation spectra in E. coli cells expressing the sensor; type: cell-based; conditions: HypocratesCS, key Cys replaced; 80 µM oxidant; PBS pH 7.4
T3 construct: cpYFP (from HyPer-2) inserted with SAG/GT linkers into flexible loop of NemR^C106; pQE30; with Green fluorescent protein (circularly permuted yellow variant, cpYFP)

NemR^C106 [4] = biological target: T1, NemR^C106; assay: stopped-flow, intrinsic Trp fluorescence; type: binding; conditions: covalent (oxidation); 100 mM sodium phosphate pH 7.4, 25 °C; 1 µM protein
[5] = biological target: T2, Hypocrates (NemR-cpYFP biosensor); assay: stopped-flow, cpYFP fluorescence (λex […] nm); type: binding; conditions: covalent (oxidation, chlorination); 100 mM sodium phosphate pH 7.4, 25 °C; 0.5 µM protein
[6] = biological target: T4, Hypocrates (NemR-cpYFP biosensor) (Escherichia coli, UniProt P67430, C21S/C98S/C116S/C149S/C153S/K175A, form not given); assay: fluorescence excitation spectra in E. coli cells expressing the sensor; type: cell-based; conditions: HypocratesKA; 80 µM oxidant; PBS pH 7.4
T4 construct: cpYFP (from HyPer-2) inserted with SAG/GT linkers into flexible loop of NemR^C106; pQE30; with Green fluorescent protein (circularly permuted yellow variant, cpYFP)

[7] = biological target: Hypocrates (NemR-cpYFP biosensor) (E. coli); assay: SEC; Superdex 200 Increase 10/300 GL, 100 mM sodium phosphate buffer pH 7.4, 24 °C, 0.75 ml/min; samples incubated with 5 mM DTT or with N-chlorotaurine at 1:20 protein/oxidant ratio for 5 min before injection; absorbance at 415 nm; column calibrated with mass standards

T1 sequence (P67430 whole entry C21S/C98S/C116S/C149S/C153S): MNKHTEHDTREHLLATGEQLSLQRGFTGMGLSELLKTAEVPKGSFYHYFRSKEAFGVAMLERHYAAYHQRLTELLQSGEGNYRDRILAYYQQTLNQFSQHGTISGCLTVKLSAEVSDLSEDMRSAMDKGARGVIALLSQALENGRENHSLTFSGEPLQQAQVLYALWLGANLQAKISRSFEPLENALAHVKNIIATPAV
T2 sequence (P67430 whole entry C21S/C98S/C116S/C149S/C153S, form open): as the sequence (P67430 whole entry C21S/C98S/C116S/C149S/C153S) above
T3 sequence (P67430 whole entry C21S/C98S/C106S/C116S/C149S/C153S, form open): as the sequence (P67430 whole entry C21S/C98S/C116S/C149S/C153S) above, with C106S counted along it
T4 sequence (P67430 whole entry C21S/C98S/C116S/C149S/C153S/K175A, form open): as the sequence (P67430 whole entry C21S/C98S/C116S/C149S/C153S) above, with K175A counted along it

OBr [NaOBr]
intrinsic Trp fluorescence shift (NemR^C106 [1]): The oxidants NaOCl, NCT, and NaOBr caused Trp-fluorescence shifts

N#CSO [HOSCN]
sensitivity (slope of initial linear part) [2]: ~ 1.11 µM^−1

OCl [NaOCl]
no response [3]: E. coli cells expressing HypocratesCS did not respond anymore to the addition of NaOCl
second-order rate constant (NemR^C106 [4]): ~ 3.0 × 10^5 M^−1s^−1
second-order rate constant (kon) [5]: (1.4 ± 0.056) × 10^6 M^−1s^−1
fluorescence excitation spectra in E. coli cells expressing the sensor [6]: we found that HypocratesKA is still highly sensitive to NaOCl (Fig. 1i)

Hypocrates (NemR-cpYFP biosensor)
stoichiometry N [7]: 2
